Test results: patent publication US20190151294A1, “TREATMENT OF ALCOHOLISM AND DEPRESSION AND/OR DYSPHORIC MOOD USING IBUDILAST” (MEDICINOVA, INC., priority 2016, published 2019)

What was measured:
[1] = system: high-alcohol-drinking (HAD1) rats; assay: Voluntary ethanol consumption in high-alcohol-drinking (HAD1) rats; assay type: in vivo, rat; details: for dose dependence of effect on ethanol intake (2-way mixed ANOVA): p<0.001
Procedure: To perform the study, adult male P and HAD1 rats were randomly assigned to receive one of the following four doses of ibudilast—0 mg/Kg, 3 mg/Kg, 6 mg/Kg, or 9 mg/Kg with eight rats assigned to each dose. Each dosing group was balanced to average a 2 h/day ethanol (15% v/v) intake. Water was concurrently available to the rats and Mazola corn oil was used as the vehicle.
The study was divided into four test phases. In the maintenance test phase rats in the treatment group were injected ibudilast subcutaneously (2 mL/kg s.c.), using standard solutions that deliver 3 mg/Kg, 6 mg/Kg or 9 mg/Kg of ibudilast, 60 min before each ethanol test session and the same dose of ibudilast was administered subcutaneously to the rats 8 hours later. Rats in the control group, however, are administered 2 mL/Kg Mazola corn oil subcutaneously. This protocol was carried out for 4 consecutive days. Following the maintenance test phase, is a two week no drug recovery phase during which rats are permitted access to ethanol and the amount of ethanol consumed by the rats was measured.
The recovery phase is followed by a two week forced ethanol abstinence phase. Following forced abstinence, the effects of ibudilast on ethanol drinking were examined by re-introducing ethanol to rats for a period of 5 consecutive days (i.e., the Relapse Test phase). Each animal received the same dose of ibudilast during maintenance and relapse test phases.

C57BL/6J mice = assay: Chronic intermittent ethanol (CIE) exposure mouse model of ethanol dependence; assay type: in vivo
Procedure: Briefly, mice were divided into test (ethanol dependent) and control (non-ethanol dependent) groups. Mice in the former group were exposed to chronic intermittent ethanol (CIE) vapor (16 hr/day×4 days), and then forced to abstain from alcohol for 72 hours. Mice were then permitted access to ethanol for 2 h/day for a 5-day test period. This pattern of weekly CIE exposures followed by 5-day test periods was repeated for 9 cycles. Mice in the control group were treated in the same manner, except these animals were exposed to air rather than ethanol vapors. Mice from both groups were further divided into four sub-groups with animals receiving 0 mg/Kg, 3 mg/Kg, 6 mg/Kg or 12 mg/Kg dose of ibudilast.
In a separate study, adult male C57BL/6J mice were used to evaluate ibudilast as a therapeutic for the treatment of alcohol dependence. Two groups of mice were used for the study. Mice in the first group were trained to drink ethanol using a 2 h/day free-choice (15% v/v ethanol) drinking procedure (ethanol dependent (EtOH) mice), while mice in the second group were provided water and served a control (ethanol nondependent (CTL)) mice. Both the ethanol dependent and ethanol non-dependent groups had equal number of mice (N=37-38/group).
Mice in the alcohol dependent group were then exposed to chronic intermittent ethanol (CIE) vapors for 16 hr/day over four days. After a 72 hours forced abstinence period, the ethanol dependent mice were again permitted access to ethanol for 2 hours each day over a 5 consecutive test days. This pattern of chronic intermittent ethanol vapor exposure for four consecutive days followed by forced abstinence and a five day ethanol access test period was repeated for 9 cycles. Mice in the control (CTL) group were treated in a similar manner except that air was used in the inhalation chambers in place of ethanol vapors.
Both control and ethanol dependent mice received subcutaneous (s.c.) injections of the vehicle at 9 hours and 1 hour prior to the start of daily drinking sessions during Test Cycles 4, 5 and 6 to acclimate the animals to handling and administration of injections.
At the end of test cycle 6, mice in the ethanol dependent group and the control group were separated into four sub-groups with animals receiving one of four doses of ibudilast—0 mg/Kg, 3 mg/Kg, 6 mg/Kg or 12 mg/Kg during Test Cycles 7 and 8. Each sub-group contained 9-10 mice (N=9-10/group). The dose of ibudilast was increased during Test Cycle 9 with ethanol dependent and control mice receiving one of the following four doses of ibudilast—0 mg/Kg, 6 mg/Kg, 12 mg/Kg, or 18 mg/Kg. Thus, mice previously receiving a dose of […] were administered ibudilast at a dose of 18 mg/Kg during Test Cycle 9.

[2] = system: non-treatment-seeking individuals with AUD; assay: Phase 1b study: intravenous alcohol administration (IV-A) challenge, with post-hoc BDI analysis; assay type: in vivo, human; details: for Response to Alcohol Challenge (alcohol-induced stimulation, positive affect, negative affect, liking, wanting): post-hoc, subjects with higher BDI scores at baseline, vs placebo and vs lower BDI subjects
Procedure: Infusion was performed by the study nurse under the supervision of the study physician using a 6% alcohol IV infusion. An alcohol infusion nomogram provides a formula for obtaining the rate of infusion based on the participant's gender and weight. Thus, male participants' were infused at a rate determined by the following formula: 0.166-ml/minute×weight in kilogram while the rate of infusion for female participants was calculated as 0.126-ml/minute×weight in kilograms.
Breath alcohol content (BrAC) was monitored every 3 to 5 minutes during infusion until target BrAC's of 0.02 g·dl, 0.04 g·dl, 0.06 g·dl, and 0.08 g·dl were obtained, following which infusion rates were reduced to half the original rate to maintain stable BrAC levels during the testing phase. The following parameters were assessed prior to intravenous alcohol challenge and again at each target BrAC: (1) Biphasic Alcohol Effects Scale (BAES) to obtain a reliable and valid measure of alcohol's stimulant and sedative effects; (2) Alcohol Urge Questionnaire (AUQ)—an 8-item scale where subjects rate their craving for alcohol at the present moment, which is appropriate for examining the level of the urge to drink alcohol; (3) Alcohol Ratings Scale, which captures “liking” and “wanting” of alcohol”; (4) The Profile of Mood States (POMS; McNair 1971) which was used to record positive and negative mood states; and (5) Heart Rate and Blood Pressure levels measure at baseline and at each target level of BrAC.
To probe the possible relationship between MN-166, mood, and subjective responses to alcohol, further analysis was performed. The following variables were explored in all participants: • 1. Baseline scores for depressive symptomology (as measured by the Beck Depression Inventory (BDI)) were collected. • 2. Responses to Alcohol Challenge (e.g., alcohol-induced stimulation, positive affect, negative affect, “liking,” and “wanting”) were compared between subjects with higher BDI scores (more depressive symptomology) and dysphoria and subjects with lower BDI scores (less depressive symptomology) and dysphoria.

CC(C)C(=O)c1c(C(C)C)nn2ccccc12 [ibudilast, Ibudilast]
reduction of ethanol intake ([1]; HAD1 rats, 5-day Relapse Test phase): about 50%
dose dependence of effect on ethanol intake (2-way mixed ANOVA) ([1]; HAD1 rats, Relapse Test phase): dose dependent reduction in ethanol intake
reduction of ethanol intake ([1]; HAD1 rats, maintenance test phase, 4 days, s.c. twice daily, vs vehicle): approximately 50%
dose dependence of effect on ethanol intake (2-way mixed ANOVA) ([1]; HAD1 rats, maintenance test phase, 0, 3, 6, 9 mg/Kg): dose dependent reduction of ethanol intake
time course of reduced ethanol intake (Dose x Day interaction) ([1]; HAD1 rats, p=0.023, data not shown): most robust on the first day
24-hour food intake ([1]; HAD rats, especially at the 9 mg/Kg dose, effect diminished over the 5-day test phase): transitory reductions
ethanol intake of alcohol dependent mice vs control group counterparts (C57BL/6J mice; 6 mg, Test Cycle 9, p<0.05): consumed significantly more ethanol
difference in ethanol intake between alcohol dependent and control mice (C57BL/6J mice; 12 mg/Kg and 18 mg/Kg, Test Cycle 9): no significant difference
reduction of ethanol intake, alcohol dependent vs control mice (Group x Dose interaction) (C57BL/6J mice; 12 mg/Kg and 18 mg/Kg, Test Cycle 9, p<0.01): more effective at reducing ethanol intake in alcohol dependent mice than control mice
ethanol intake (C57BL/6J mice; 12 mg/Kg s.c., alcohol dependent mice, before Test Cycle 8 (FIG. 2)): reduced ethanol in alcohol dependent mice
ethanol consumption relative to vehicle (C57BL/6J mice; 12 mg/Kg, Test Cycle 8, both alcohol dependent and control mice, p<0.05): reduced ethanol consumption to a greater extent
concurrent water intake (C57BL/6J mice; associated with decreased ethanol intake): significant increases
ethanol intake of test (ethanol dependent) group vs control group (C57BL/6J mice; at the higher doses (FIG. 2)): below those for mice in the control group
subjective response to alcohol during the infusion ([2]; 50 mg BID, day 6 IV alcohol): did not affect
Response to Alcohol Challenge (alcohol-induced stimulation, positive affect, negative affect, liking, wanting) ([2]; listed as MN-166): less positive and more negative responses
Response to Alcohol Challenge (alcohol-induced stimulation, positive affect, negative affect, liking, wanting) ([2]; negative responses to alcohol): more negative
Response to Alcohol Challenge (alcohol-induced stimulation, positive affect, negative affect, liking, wanting) ([2]; positive responses to alcohol): less positive,
